US6448405B1, “Steroid receptor modulator compounds and methods” (Ligand Pharmaceuticals Incorporated, priority 1994, dated 2002)
Where two headings read alike, the source gives them in different places.

Key:
[1] = target: T1, human androgen receptor (AR) (Homo sapiens, UniProt P10275); assay: Co-transfection assay, AR agonist and antagonist activity, CV-1 cells (pRShAR); format: cell-based; settings: for AR Agonist CV-1 Cells Efficacy (%): relative to DHT; for AR Antagonist CV-1 Cells Efficacy (%): % maximal inhibition
T1 construct: expressed in transfected cells; host or cells: CV-1 cells, transient transfection
T1 sequence (P10275 1-920): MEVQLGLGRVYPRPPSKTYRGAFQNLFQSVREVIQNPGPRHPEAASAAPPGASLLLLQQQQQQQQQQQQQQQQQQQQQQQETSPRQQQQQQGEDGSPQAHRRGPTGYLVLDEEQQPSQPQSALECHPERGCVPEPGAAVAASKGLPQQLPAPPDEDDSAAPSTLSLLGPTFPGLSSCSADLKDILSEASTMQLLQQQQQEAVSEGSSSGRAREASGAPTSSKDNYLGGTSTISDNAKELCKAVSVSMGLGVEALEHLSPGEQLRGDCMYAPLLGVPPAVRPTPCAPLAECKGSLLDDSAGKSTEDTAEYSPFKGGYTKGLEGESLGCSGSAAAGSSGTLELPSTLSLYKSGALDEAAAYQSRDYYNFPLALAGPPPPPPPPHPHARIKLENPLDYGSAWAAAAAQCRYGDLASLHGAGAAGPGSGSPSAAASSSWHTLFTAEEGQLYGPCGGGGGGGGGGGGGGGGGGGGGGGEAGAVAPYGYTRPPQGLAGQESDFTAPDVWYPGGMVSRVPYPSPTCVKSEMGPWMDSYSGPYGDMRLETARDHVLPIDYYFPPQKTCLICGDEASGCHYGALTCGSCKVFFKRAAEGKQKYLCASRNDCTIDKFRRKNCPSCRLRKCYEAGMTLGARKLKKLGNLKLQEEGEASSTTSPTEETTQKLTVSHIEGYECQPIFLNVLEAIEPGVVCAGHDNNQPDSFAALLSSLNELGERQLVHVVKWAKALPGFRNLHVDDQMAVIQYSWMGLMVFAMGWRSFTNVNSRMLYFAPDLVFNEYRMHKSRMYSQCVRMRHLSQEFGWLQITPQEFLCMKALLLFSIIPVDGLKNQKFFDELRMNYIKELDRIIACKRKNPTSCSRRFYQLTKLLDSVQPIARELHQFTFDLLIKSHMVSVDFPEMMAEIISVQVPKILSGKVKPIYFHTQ

human AR = target: T2, human AR (Homo sapiens, UniProt P10275); assay: AR whole cell binding assay, transfected COS-1 cells, 3H-DHT
T2 construct: expressed in transfected cells; host or cells: COS-1 cells, transient transfection
T2 sequence (P10275 1-920): T1 sequence (P10275 1-920)

human PR-B = target: T3, human PR-B (Homo sapiens, UniProt P06401); assay: Co-transfection assay, PR agonist and antagonist activity, CV-1 cells; format: cell-based;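 note: luciferase reporter driven by a hormone response element, co-transfected with human PR-B into CV-1 monkey kidney cells, agonists raise and antagonists lower the reporter signal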
T3 construct: expressed in transfected cells; host or cells: CV-1 cells (African green monkey kidney fibroblasts), transient transfection
T3 sequence (P06401 1-933): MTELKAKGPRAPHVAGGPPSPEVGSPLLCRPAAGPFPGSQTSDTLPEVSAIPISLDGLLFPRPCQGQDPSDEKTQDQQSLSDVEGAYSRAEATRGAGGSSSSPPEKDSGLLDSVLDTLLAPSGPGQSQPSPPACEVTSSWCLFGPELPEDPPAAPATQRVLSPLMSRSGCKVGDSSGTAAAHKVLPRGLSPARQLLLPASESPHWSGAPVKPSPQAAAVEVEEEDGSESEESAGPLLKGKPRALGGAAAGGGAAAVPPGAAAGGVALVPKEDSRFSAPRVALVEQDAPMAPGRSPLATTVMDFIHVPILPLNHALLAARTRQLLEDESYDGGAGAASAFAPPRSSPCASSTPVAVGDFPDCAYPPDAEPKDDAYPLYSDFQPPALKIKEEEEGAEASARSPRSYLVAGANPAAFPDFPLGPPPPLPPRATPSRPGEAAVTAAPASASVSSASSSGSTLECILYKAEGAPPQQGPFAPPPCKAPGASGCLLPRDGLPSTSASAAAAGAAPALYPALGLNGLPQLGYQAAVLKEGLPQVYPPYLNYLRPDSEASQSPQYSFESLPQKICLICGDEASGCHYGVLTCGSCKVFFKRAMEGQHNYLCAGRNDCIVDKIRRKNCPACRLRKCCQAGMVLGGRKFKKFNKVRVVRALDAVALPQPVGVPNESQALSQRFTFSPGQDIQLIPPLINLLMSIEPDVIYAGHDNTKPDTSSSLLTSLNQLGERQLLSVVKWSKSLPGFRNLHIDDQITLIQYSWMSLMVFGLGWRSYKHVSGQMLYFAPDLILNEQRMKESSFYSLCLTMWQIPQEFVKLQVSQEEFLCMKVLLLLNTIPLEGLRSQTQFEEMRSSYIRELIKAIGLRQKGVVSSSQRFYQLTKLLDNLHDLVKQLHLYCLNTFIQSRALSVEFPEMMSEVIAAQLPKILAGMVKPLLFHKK

PR, AR, ER, GR and MR = assay: cis-trans or co-transfection assay, steroid receptor panel (cross-reactivity); format: cell-based, human; settings: as seen in the Tables
[2] = target: T4, human progesterone receptor A form (PR-A) (Homo sapiens, UniProt P06401); assay: PR binding assay, baculovirus extract, [3H] progesterone; settings: read-out: PR Binding Ki
T4 sequence (P06401 1-769 isoform P06401-2): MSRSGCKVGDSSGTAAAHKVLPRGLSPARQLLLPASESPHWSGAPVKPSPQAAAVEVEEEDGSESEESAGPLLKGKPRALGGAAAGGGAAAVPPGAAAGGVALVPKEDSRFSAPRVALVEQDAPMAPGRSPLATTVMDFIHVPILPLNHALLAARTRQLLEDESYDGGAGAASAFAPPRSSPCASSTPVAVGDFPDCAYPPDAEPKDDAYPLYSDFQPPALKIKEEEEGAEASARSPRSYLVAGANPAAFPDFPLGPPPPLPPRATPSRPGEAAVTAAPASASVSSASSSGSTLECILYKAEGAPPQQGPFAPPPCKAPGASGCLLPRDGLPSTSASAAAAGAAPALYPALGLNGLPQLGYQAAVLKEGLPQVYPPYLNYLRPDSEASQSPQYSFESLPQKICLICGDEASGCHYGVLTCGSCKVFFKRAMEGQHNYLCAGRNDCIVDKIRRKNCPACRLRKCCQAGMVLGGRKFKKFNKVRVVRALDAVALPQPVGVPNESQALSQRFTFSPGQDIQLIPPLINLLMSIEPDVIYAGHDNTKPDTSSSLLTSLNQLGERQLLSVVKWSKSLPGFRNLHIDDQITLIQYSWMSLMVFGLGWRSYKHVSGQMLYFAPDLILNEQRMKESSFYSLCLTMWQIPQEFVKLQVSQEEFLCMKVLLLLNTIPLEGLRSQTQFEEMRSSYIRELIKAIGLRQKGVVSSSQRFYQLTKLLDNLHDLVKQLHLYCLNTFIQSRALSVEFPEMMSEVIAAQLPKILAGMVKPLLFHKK

[3] = system: uterine wet weight in ovariectomized Sprague-Dawely rats; assay: Uterine wet weight assay (PR agonists); format: in vivo, rat; settings: MPA and Compound 210 at 0.3, 1.0 and 3.0 mg/rat; Compound 163 at 3 mg/rat
Source text: The effectiveness of selected compounds of the present invention as PR agonists was investigated in the well recognized uterine wet weight assay, as described in G. J. Marcus, “Mitosis in the rat uterus during the estrous cycle, early pregnancy and early pseudopregnancy”, 10 Biol. Reprod., 447 (1974), S. […] J. Obstet. […] I. Dorfman, “Estrogens” (Ch. 2) and “Antiestrogens” (Ch. 3). in Methods in Hormone Research, ed. R. I. Dorfman, Academic Press, New York, New York, pp101-130 (1969), the disclosures of which are herein incorporated by reference. Four to five week old, ovariectomized, Sprague-Dawely rats (Harlan-Sprague-Dawely, Indianapolis, Ind.) were obtained 1 week after surgery and allowed to acclimate for an additional week after shipment. […] Louis, Mo.) a synthetic estrogen agonist, were fully dissolved in purified sesame oil (Croda, Parsippany, N.J.). […] Additional control groups of rats were administered estrone or vehicle (i.e. sesame oil) alone. Animals were sacrificed on the fourth day of the experiment.

[4] = read-out: AR Agonist CV-1 Cells Potency, agonist mode, EC50
[5] = antagonist mode, DHT at its EC50
[6] = read-out: AR Antagonist CV-1 Cells Potency, Table 2, antagonist mode, IC50
[7] = read-out: AR Agonist CV-1 Cells Potency, Table 2, agonist mode, EC50

SMILES	EC50 [1] [nM]	IC50 [1] [nM]	AR Agonist CV-1 Cells Efficacy (%) ([1]; Table 2, agonist mode)	AR Antagonist CV-1 Cells Efficacy (%) ([1]; Table 2, antagonist mode)	AR Agonist CV-1 Cells Efficacy (%) ([1]; agonist mode)	EC50 [1, 4] [nM]	Ki (human AR; competition with 1 nM 3H-DHT, COS-1 whole cells, three hours at 37° C., read-out: AR Binding Ki) [nM]	EC50 (human PR-B; agonist mode, EC50, read-out: PR Agonist CV-1 Cells Potency) [nM]	IC50 (human PR-B; read-out: PR Antagonist CV-1 Cells Potency) [nM]	steroid receptor selectivity profile (PR, AR, ER, GR and MR)	Ki [2] [nM]	effect on uterine wet weight when co-administered with estrone [3]	Ki (human AR) [nM]	AR Antagonist CV-1 Cells Efficacy (%) [1, 5]	IC50 [1, 6] [nM]	EC50 [1, 7] [nM]
CC1C(=O)C(C)(C)Nc2cc3[nH]c(=O)cc(C(F)(F)F)c3cc21 (racemic) [Compound 418, (R/S)-1,2,3,4-Tetrahydro-6-trifluoromethyl-2,2,4-trimethyl-8-pyridono[5,6-f]-3-quinolinone]	> 10000	200	na (na = not active (i.e. efficacy of <20 and potency of >10,000))	63%	na (na = not active (i.e. efficacy of <20 and potency of >10,000))	> 10000	1000									
CC1=CC(C)(C)Nc2ccc3c(c21)C(c1ccc(Cl)cc1)Oc1ccccc1-3 (racemic) [Compound 163, (R/S)-5-(4-Chlorophenyl)-1,2-dihydro-2,2,4-trimethyl-5H-chromeno[3,4-f]quinoline]								15	3620	highly selective PR agonists	1	decreased by approximately half				
CC1CC(C)(C)Nc2cc3oc(=O)cc(-c4ccoc4)c3cc21 (racemic) [Compound 405, (R/S)-5-(3-Furyl)-1,2,3,4-tetrahydro-2,2,4-trimethyl-8-pyranono[5,6-g]quinoline]	> 10000	77	na (na = not active (i.e. efficacy of <20 and potency of >10,000))	89%	na (na = not active (i.e. efficacy of <20 and potency of >10,000))	> 10000							6			
CCC1CCNc2cc3oc(=O)cc(C(F)(F)F)c3cc21 (racemic) [Compound 414, (R/S)-4-Ethyl-1,2,3,4-tetrahydro-6-trifluoromethyl-8-pyranono[5,6-g]quinoline]	1	> 10000	118%	na (na = not active (i.e. efficacy of <20 and potency of >10,000))									0.3	na (na = not active (i.e. efficacy of <20 and potency of >10,000))	> 10000	
CC1=CC(C)(C)N(C)c2cc3oc(=O)cc(C(F)(F)F)c3cc21 [Compound 265, 1,2-Dihydro-1,2,2,4-tetramethyl-6-trifluoromethyl-8-pyranono[5,6-g]quinoline]	> 10000	56	na (na = not active (i.e. efficacy of <20 and potency of >10,000))	78%	na (na = not active (i.e. efficacy of <20 and potency of >10,000))								23			> 10000
CC1=CC(C)(C)Nc2cc3oc(=O)cc(C(F)(F)F)c3cc21 [Compound 238, 1,2-Dihydro-2,2,4-trimethyl-6-trifluoromethyl-8-pyranono[5,6-g]quinoline]	10	> 10000	96%	na (na = not active (i.e. efficacy of <20 and potency of >10,000))									44	na (na = not active (i.e. efficacy of <20 and potency of >10,000))	> 10000	
CC1=CC(C)(C)Nc2cc3oc(=O)cc(C(F)(F)C(F)(F)F)c3cc21 [Compound 256, 1,2-Dihydro-2,2,4-trimethyl-6-(1,1,2,2,2-pentafluoroethyl)-8-pyranono[5,6-g]quinoline]	> 10000	62	na (na = not active (i.e. efficacy of <20 and potency of >10,000))	91%	na (na = not active (i.e. efficacy of <20 and potency of >10,000))								4500			> 10000
